Results published in ChEMBL document CHEMBL1201862, “PubChem BioAssay data set” (2004).
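Briefly, cells in 96-well plates were exposed to five compound concentrations for 48 h, and endpoints were estimated by linear interpolation. GI50 is the concentration that inhibits growth by half.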 Calls of active or inactive are those of the source. No stated cut-off is given here; in the data, active = GI50 up to about 1.1 µM and inactive = higher.

Legend:
Assay in all cases: growth of human tumour cells (NCI), 48 h
SK-MEL-5 = system: SK-MEL-5
SF-295 = system: SF-295
OVCAR-4 = system: OVCAR-4
SW-620 = system: SW-620
HCT-116 = system: HCT-116
786-0 = system: 786-0
LOX IMVI = system: LOX IMVI
MOLT-4 = system: MOLT-4
SR = system: SR
Malme-3M = system: Malme-3M
RPMI-8226 = system: RPMI-8226
OVCAR-5 = system: OVCAR-5
M14 = system: M14
K562 = system: K562
EKVX = system: EKVX
A498 = system: A498
CCRF-CEM = system: CCRF-CEM
SNB-19 = system: SNB-19
HOP-62 = system: HOP-62
UACC-257 = system: UACC-257
Hs-578T = system: Hs-578T
ACHN = system: ACHN
NCI-H23 = system: NCI-H23
A549 = system: A549
NCI/ADR-RES = system: NCI/ADR-RES
OVCAR-8 = system: OVCAR-8
NCI-H226 = system: NCI-H226
HT-29 = system: HT-29
HOP-92 = system: HOP-92
TK-10 = system: TK-10
OVCAR-3 = system: OVCAR-3
IGROV-1 = system: IGROV-1
DU-145 = system: DU-145
NCI-H460 = system: NCI-H460
SK-MEL-28 = system: SK-MEL-28
U-251 = system: U-251
SF-539 = system: SF-539
COLO 205 = system: COLO 205
SF-268 = system: SF-268
SN12C = system: SN12C
SK-OV-3 = system: SK-OV-3
MDA-N = system: MDA-N
MDA-MB-231 = system: MDA-MB-231
KM12 = system: KM12
CAKI-1 = system: CAKI-1
UO-31 = system: UO-31
MCF7 = system: MCF7
HCT-15 = system: HCT-15
SNB-75 = system: SNB-75
HCC 2998 = system: HCC 2998
PC-3 = system: PC-3
SK-MEL-2 = system: SK-MEL-2
T47D = system: T47D
HL-60 = system: HL-60
NCI-H522 = system: NCI-H522
UACC-62 = system: UACC-62
MDA-MB-435 = system: MDA-MB-435
RXF 393 = system: RXF 393

## COc1ccc(C[C@H]2COC(=O)[C@@H]2Cc2ccc(O)cc2)cc1OC
SK-MEL-5
  GI50: > 100 µM (inactive)
SF-295
  GI50: > 100 µM (inactive)
OVCAR-4
  GI50: > 100 µM (inactive)
SW-620
  GI50: > 100 µM (inactive)
HCT-116
  GI50: > 100 µM (inactive)
786-0
  GI50: > 100 µM (inactive)
LOX IMVI
  GI50: > 100 µM (inactive)
MOLT-4
  GI50: > 100 µM (inactive)
SR
  GI50: > 100 µM (inactive)
Malme-3M
  GI50: > 100 µM (inactive)
RPMI-8226
  GI50: > 100 µM (inactive)
OVCAR-5
  GI50: > 100 µM (inactive)
M14
  GI50: > 100 µM (inactive)
K562
  GI50: > 100 µM (inactive)
EKVX
  GI50: > 100 µM (inactive)
A498
  GI50: > 100 µM (inactive)
CCRF-CEM
  GI50: > 100 µM (inactive)
SNB-19
  GI50: > 100 µM (inactive)
HOP-62
  GI50: > 100 µM (inactive)
UACC-257
  GI50: > 100 µM (inactive)
Hs-578T
  GI50: > 100 µM (inactive)
ACHN
  GI50: > 100 µM (inactive)
NCI-H23
  GI50: > 100 µM (inactive)
A549
  GI50: > 10 µM (inactive)
NCI/ADR-RES
  GI50: > 100 µM (inactive)
OVCAR-8
  GI50: > 100 µM (inactive)
NCI-H226
  GI50: > 100 µM (inactive)
HT-29
  GI50: > 100 µM (inactive)
HOP-92
  GI50: > 100 µM (inactive)
TK-10
  GI50: > 100 µM (inactive)
OVCAR-3
  GI50: > 100 µM (inactive)
IGROV-1
  GI50: > 100 µM (inactive)
DU-145
  GI50: > 100 µM (inactive)
NCI-H460
  GI50: > 100 µM (inactive)
SK-MEL-28
  GI50: > 100 µM (inactive)

## C=C1CN=C(Nc2ccc(F)cc2F)S1
SK-MEL-5
  GI50: > 100 µM (inactive)
SF-295
  GI50: > 100 µM (inactive)
U-251
  GI50: > 100 µM (inactive)
SF-539
  GI50: > 100 µM (inactive)
COLO 205
  GI50: > 100 µM (inactive)
OVCAR-4
  GI50: > 100 µM (inactive)
SF-268
  GI50: > 100 µM (inactive)
SW-620
  GI50: > 100 µM (inactive)
SN12C
  GI50: > 100 µM (inactive)
HCT-116
  GI50: > 100 µM (inactive)
786-0
  GI50: > 100 µM (inactive)
LOX IMVI
  GI50: 18.9 µM (inactive)
SK-OV-3
  GI50: > 100 µM (inactive)
MOLT-4
  GI50: 31.7 µM (inactive)
SR
  GI50: 36.8 µM (inactive)
Malme-3M
  GI50: > 100 µM (inactive)
RPMI-8226
  GI50: 49.7 µM (inactive)
OVCAR-5
  GI50: > 100 µM (inactive)
MDA-N
  GI50: > 100 µM (inactive)
K562
  GI50: 30.5 µM (inactive)
EKVX
  GI50: > 100 µM (inactive)
A498
  GI50: > 100 µM (inactive)
CCRF-CEM
  GI50: 18.3 µM (inactive)
SNB-19
  GI50: > 100 µM (inactive)
MDA-MB-231
  GI50: > 100 µM (inactive)
KM12
  GI50: > 100 µM (inactive)
HOP-62
  GI50: > 100 µM (inactive)
CAKI-1
  GI50: > 100 µM (inactive)
UACC-257
  GI50: > 100 µM (inactive)
Hs-578T
  GI50: > 100 µM (inactive)
ACHN
  GI50: > 100 µM (inactive)
NCI-H23
  GI50: > 100 µM (inactive)
UO-31
  GI50: > 100 µM (inactive)
MCF7
  GI50: 28 µM (inactive)
A549
  GI50: > 100 µM (inactive)
HCT-15
  GI50: > 100 µM
NCI/ADR-RES
  GI50: > 100 µM (inactive)
OVCAR-8
  GI50: > 100 µM (inactive)
SNB-75
  GI50: 32.1 µM (inactive)
HCC 2998
  GI50: > 100 µM (inactive)
HT-29
  GI50: > 100 µM (inactive)
HOP-92
  GI50: 2.51 µM (inactive)
TK-10
  GI50: > 100 µM (inactive)
PC-3
  GI50: > 100 µM (inactive)
IGROV-1
  GI50: > 100 µM (inactive)
SK-MEL-2
  GI50: > 100 µM (inactive)
DU-145
  GI50: > 100 µM (inactive)
T47D
  GI50: > 100 µM (inactive)
NCI-H460
  GI50: > 100 µM (inactive)
SK-MEL-28
  GI50: > 100 µM (inactive)
HL-60
  GI50: 31.5 µM (inactive)

## O=c1[nH]n(Cc2ccccc2CCl)c2ccc([N+](=O)[O-])cc12
SK-MEL-5
  GI50: 13.4 µM (inactive)
SF-295
  GI50: 37.8 µM (inactive)
NCI-H522
  GI50: 22.9 µM (inactive)
U-251
  GI50: 42.3 µM (inactive)
SF-539
  GI50: 58.3 µM (inactive)
COLO 205
  GI50: 26.1 µM (inactive)
OVCAR-4
  GI50: 37.1 µM (inactive)
SF-268
  GI50: 35.3 µM (inactive)
SW-620
  GI50: 49 µM (inactive)
SN12C
  GI50: 52.7 µM (inactive)
HCT-116
  GI50: 41.4 µM (inactive)
786-0
  GI50: 55.5 µM (inactive)
LOX IMVI
  GI50: 55.7 µM (inactive)
SK-OV-3
  GI50: 27.7 µM (inactive)
MOLT-4
  GI50: 26.6 µM (inactive)
SR
  GI50: 33.6 µM (inactive)
Malme-3M
  GI50: 83.4 µM (inactive)
RPMI-8226
  GI50: 32 µM (inactive)
OVCAR-5
  GI50: > 100 µM (inactive)
M14
  GI50: 39.2 µM (inactive)
MDA-N
  GI50: 62.1 µM (inactive)
K562
  GI50: 42.4 µM (inactive)
EKVX
  GI50: 45.2 µM (inactive)
A498
  GI50: 62.2 µM (inactive)
CCRF-CEM
  GI50: 28.7 µM (inactive)
SNB-19
  GI50: 48.9 µM (inactive)
MDA-MB-231
  GI50: 38.4 µM (inactive)
KM12
  GI50: 49.5 µM (inactive)
HOP-62
  GI50: 47.6 µM (inactive)
CAKI-1
  GI50: 25 µM (inactive)
UACC-257
  GI50: 64.4 µM (inactive)
Hs-578T
  GI50: 85.5 µM (inactive)
ACHN
  GI50: 55.3 µM (inactive)
NCI-H23
  GI50: 83 µM (inactive)
UO-31
  GI50: 88.3 µM (inactive)
MCF7
  GI50: 29.8 µM (inactive)
A549
  GI50: 31.2 µM (inactive)
HCT-15
  GI50: 60.8 µM
NCI/ADR-RES
  GI50: 29.9 µM (inactive)
UACC-62
  GI50: 30.5 µM (inactive)
OVCAR-8
  GI50: 40.5 µM (inactive)
NCI-H226
  GI50: 93.5 µM (inactive)
HCC 2998
  GI50: 21.7 µM (inactive)
HT-29
  GI50: 34.8 µM (inactive)
HOP-92
  GI50: 34.5 µM (inactive)
MDA-MB-435
  GI50: 35.1 µM (inactive)
TK-10
  GI50: 54.3 µM (inactive)
PC-3
  GI50: 31.3 µM (inactive)
OVCAR-3
  GI50: 48.2 µM (inactive)
IGROV-1
  GI50: > 100 µM (inactive)
RXF 393
  GI50: 32.9 µM (inactive)
SK-MEL-2
  GI50: 43.4 µM (inactive)
DU-145
  GI50: 59.7 µM (inactive)
NCI-H460
  GI50: 23.8 µM (inactive)
SK-MEL-28
  GI50: 34.5 µM (inactive)
HL-60
  GI50: 26.6 µM (inactive)

## CC(C)=CC(=O)O[C@H]1C(=O)O[C@@H]2C[C@H]3[C@H](C)C(=O)C(O[C@@H]4O[C@H](CO)[C@@H](O)[C@H](O)[C@H]4O)=C[C@]3(C)[C@H]3[C@@H](O)[C@H](O)[C@]4(C(=O)O)OC[C@]32[C@@H]14 [BRUCEOSIDE D]
COLO 205
  GI50: 65.8 µM (inactive)
SW-620
  GI50: 79.4 µM (inactive)
786-0
  GI50: 96.6 µM (inactive)
OVCAR-5
  GI50: 84.5 µM (inactive)
MDA-N
  GI50: 66.2 µM (inactive)
A498
  GI50: 79.1 µM (inactive)
CAKI-1
  GI50: 90.8 µM (inactive)
UACC-257
  GI50: 98.9 µM (inactive)
NCI-H23
  GI50: 56.1 µM (inactive)
UACC-62
  GI50: 97.5 µM (inactive)
SNB-75
  GI50: 86.1 µM (inactive)
MDA-MB-435
  GI50: 66.5 µM (inactive)
TK-10
  GI50: 71.9 µM (inactive)
PC-3
  GI50: 71 µM (inactive)
IGROV-1
  GI50: 54 µM (inactive)
T47D
  GI50: 51.9 µM (inactive)
